Some test systems named below: M14 melanoma; SR leukemia; T-47D breast; HCC-2998 colon; SK-OV-3 ovarian; SF-268 CNS; OVCAR-3 ovarian; SNB-19 CNS; MCF7 breast; MDA-MB-435.
What all share (assay): NCI anticancer screen, dose series, 48 h

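Results reflect a 48-hour exposure of cells in 96-well plates to compound at five concentrations. GI50 marks 50% less growth. TGI: total growth inhibition.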

As for `O=c1c2ccccc2nc(-c2cccc([N+](=O)[O-])c2)n1O`, the TGI with M14 melanoma, in the assay on SR leukemia, in the assay with T-47D breast, with HCC-2998 colon, in the assay on SK-OV-3 ovarian and in the assay with SF-268 CNS was more than 100 µM in each case. The TGI with OVCAR-3 ovarian was more than 94.3 µM; with SNB-19 CNS, more than 100 µM; with MCF7 breast it was more than 100 µM; with MDA-MB-435, more than 100 µM.
With `CC1=C(CCCOC(=O)[C@H](N)CC(C)C)C2=C(C)C3(CC3)[C@@](C)(O)C(=O)C2=C1`, the GI50 is 1.67 µM in the assay with M14 melanoma; 12.8 µM with SR leukemia; 1.84 µM in the assay with T-47D breast; 1.78 µM in the assay with HCC-2998 colon; 0.752 µM in the assay on SK-OV-3 ovarian; 0.736 µM with SF-268 CNS. Further, the GI50 with OVCAR-3 ovarian was 2.31 µM; in the assay on SNB-19 CNS, 2.88 µM; with MCF7 breast it was 2.73 µM; with MDA-MB-435, 3.28 µM. Also, the TGI in the assay on M14 melanoma was 4.41 µM; in the assay on SR leukemia it was more than 100 µM; in the assay on T-47D breast, 6.53 µM; with HCC-2998 colon, 4.49 µM; in the assay with SK-OV-3 ovarian, 3.03 µM; in the assay with SF-268 CNS, more than 47.2 µM. The TGI with OVCAR-3 ovarian is 7.6 µM; in the assay on SNB-19 CNS, more than 100 µM; with MCF7 breast, more than 87.1 µM; in the assay with MDA-MB-435, 27.6 µM.
For the compound `Cn1cc(C2=C(c3ccsc3)C(=O)NC2=O)c2ccccc21`, the GI50 with M14 melanoma is more than 25 µM; with SR leukemia, more than 25 µM; with T-47D breast, 7.97 µM; in the assay on HCC-2998 colon it was more than 25 µM; in the assay with SK-OV-3 ovarian it was more than 25 µM; in the assay on SF-268 CNS, more than 25 µM. Besides, the GI50 was 17.2 µM in the assay on OVCAR-3 ovarian, more than 25 µM with SNB-19 CNS, 1.58 µM in the assay on MCF7 breast and more than 25 µM in the assay on MDA-MB-435. The TGI in the assay on M14 melanoma, in the assay with SR leukemia, in the assay with T-47D breast, in the assay with HCC-2998 colon, in the assay on SK-OV-3 ovarian and in the assay with SF-268 CNS was more than 25 µM throughout. The TGI in the assay on OVCAR-3 ovarian, with SNB-19 CNS, in the assay on MCF7 breast and in the assay on MDA-MB-435 was more than 25 µM in each case.
Take `CC(C)=CCC/C(C)=C/CC/C(C)=C/CSC[C@H](NC(=O)CCCCCN1CCN(C)CC1)C(=O)NC1CCCCCC1`: the GI50 is 1.73 µM in the assay on M14 melanoma; 1.98 µM in the assay with SR leukemia; 2.22 µM in the assay on T-47D breast; 1.84 µM in the assay with HCC-2998 colon; 5.16 µM with SK-OV-3 ovarian; 2.02 µM with SF-268 CNS. In addition, the GI50 is 2.06 µM in the assay with OVCAR-3 ovarian, 2.02 µM in the assay with SNB-19 CNS, 2.12 µM in the assay on MCF7 breast and 1.85 µM in the assay on MDA-MB-435. Also, the TGI with M14 melanoma came out at 3.43 µM; in the assay with SR leukemia, 5.35 µM; in the assay with T-47D breast it was 6.45 µM; with HCC-2998 colon, 3.61 µM; with SK-OV-3 ovarian, 17.1 µM; in the assay on SF-268 CNS it was 4.03 µM. The TGI amounted to 4.1 µM with OVCAR-3 ovarian, 4.43 µM with SNB-19 CNS, 4.79 µM with MCF7 breast and 3.43 µM in the assay with MDA-MB-435.
Take `C/C(=C\C(=O)O[C@H]1[C@@H]2[C@H](C)CC[C@H]2[C@]2(C)O[C@@]1(C1CCCCC1)C[C@H]2OC(=O)CO)c1ccccc1`: the GI50 was 7.95 µM in the assay on M14 melanoma; 6.87 µM in the assay on SR leukemia; 5.44 µM with T-47D breast; 7.32 µM in the assay on HCC-2998 colon; 7.15 µM in the assay on SK-OV-3 ovarian; 0.2 µM in the assay on SF-268 CNS. Further, the GI50 was 7.69 µM in the assay on OVCAR-3 ovarian, 7.41 µM in the assay on SNB-19 CNS, 5.4 µM in the assay with MCF7 breast and 6.84 µM in the assay with MDA-MB-435. Further, the TGI is 18.1 µM with M14 melanoma; 15 µM in the assay with SR leukemia; 12.1 µM with T-47D breast; 14.4 µM in the assay on HCC-2998 colon; 13.2 µM in the assay on SK-OV-3 ovarian; 8.47 µM with SF-268 CNS. The TGI turned out to be 13.9 µM in the assay on OVCAR-3 ovarian, 13.1 µM with SNB-19 CNS, 11.9 µM with MCF7 breast and 12.9 µM in the assay with MDA-MB-435.
For `CC(C)=CC[C@@H]1CC2(CC=C(C)C)C(=O)C(OC3(C(=O)c4ccccc4)C(=O)C4(CC=C(C)C)C[C@@H](CC=C(C)C)C(C)(C)C(CC=C(C)C)(C4=O)C3=O)(C(=O)c3ccccc3)C(=O)C(CC=C(C)C)(C2=O)C1(C)C` (stereo not given in full), the GI50 with M14 melanoma was 1.13 µM; in the assay on SR leukemia it was 1.67 µM; with T-47D breast it was 1.19 µM; in the assay on HCC-2998 colon, 1.21 µM; in the assay on SK-OV-3 ovarian, 1.41 µM; with SF-268 CNS, 1.13 µM. Besides, the GI50 in the assay on OVCAR-3 ovarian was 1.24 µM; in the assay with SNB-19 CNS it was 1.64 µM; with MCF7 breast, 1.37 µM; in the assay on MDA-MB-435, 1.41 µM. In addition, the TGI with M14 melanoma was 3.13 µM; in the assay with SR leukemia, 50 µM; with T-47D breast, 4.07 µM; with HCC-2998 colon, 3.09 µM; with SK-OV-3 ovarian, 4 µM; in the assay with SF-268 CNS it was 2.89 µM. Further, the TGI stood at 3.25 µM in the assay on OVCAR-3 ovarian, 6.65 µM with SNB-19 CNS, 5.85 µM in the assay on MCF7 breast and 4.46 µM in the assay on MDA-MB-435.
In the case of `C[N+]1([O-])C2CCC1CC(OC(=O)C(CO)c1ccccc1)C2` (stereo not given), the TGI with M14 melanoma, in the assay with SR leukemia, in the assay on T-47D breast, in the assay on HCC-2998 colon, with SK-OV-3 ovarian and in the assay on SF-268 CNS was more than 100 µM each time. Also, the TGI in the assay with OVCAR-3 ovarian, in the assay on SNB-19 CNS, in the assay with MCF7 breast and with MDA-MB-435 was more than 100 µM in each case.
Consider `O=C1NC(=O)C(c2c[nH]c3ccccc23)=C1c1c[nH]c2ccccc12`, for which the GI50 in the assay with M14 melanoma was 10.9 µM; in the assay with SR leukemia, 6.87 µM; with T-47D breast, 10.2 µM; with HCC-2998 colon, 16.2 µM; in the assay on SK-OV-3 ovarian, 13.5 µM; in the assay with SF-268 CNS it was 16.3 µM. For the same compound, the GI50 with OVCAR-3 ovarian is 17.5 µM; in the assay on SNB-19 CNS, more than 25 µM; with MCF7 breast, 9.32 µM; with MDA-MB-435, 6.86 µM. Besides, the TGI in the assay with M14 melanoma, in the assay on SR leukemia, in the assay with T-47D breast, in the assay with HCC-2998 colon, in the assay on SK-OV-3 ovarian and in the assay on SF-268 CNS was more than 25 µM each time. Moreover, the TGI with OVCAR-3 ovarian, in the assay on SNB-19 CNS, with MCF7 breast and in the assay with MDA-MB-435 was more than 25 µM throughout.

Source of the values: PubChem BioAssay (NCI).
